Reference: US20040224981A1, “Antibacterial methods and compositions” (priority 2003, published 2004)
Where two headings read alike, the source gives them in different places.

Legend:
E. faecalis = experiment: MIC against E. faecalis; assay type: cell-based; conditions: for MIC: Table 8
Protocol: The MRS inhibitor 4 alone and in combination with mupirocin (mupirocin salt and 1:1 combination) were tested against a collection of Gram-positive pathogens.
(§1) MRSi compound 5 alone and in combination with mupirocin was tested recent clinical isolates of E. faecalis (n=28) and E. faecium (n=23). Both the acetate salt and mupirocinate salts of MRSi compound 5 maintained potent activity against vancomycin-susceptible and—resistant enterococci (Tables 8, 9, and 10).

E. faecium = experiment: MIC against E. faecium; assay type: cell-based; conditions: Table 8, E. faecium ATCC 33667
Protocol: as §1

S. aureus = experiment: MIC against S. aureus strains and clinical isolates (broth microdilution); assay type: cell-based, Staphylococcus aureus
Protocol: were tested against a collection of clinical isolates of S. aureus including strains that were multi-resistant to mupirocin and to other agents such as gentamicin and oxacillin.
The acetate and mupirocin salts of the MRS inhibitor compound 5 were tested against a collection of both low and high-level mupirocin resistant clinical isolates of S. aureus (Table 6).
The bacterial strains were tested for susceptibility to mupirocin and MRSi compound 2 using the broth microdilution method in accordance with NCCLS guideline to determine their MICs.
Briefly, the MIC and checkerboard titration assays were performed with strains in microtiter trays with cation-supplemented Mueller-Hinton broth (Difco). Inocula were prepared by suspending growth from blood agar plates in sterile saline to a density equivalent to that of a 0.5 McFarland standard and were diluted […] to produce a final inoculum of 5×10^5 CFU/ml. The trays were incubated aerobically overnight. Standard quality control strains were included with each run. Fractional inhibitory concentrations (FICs) were calculated as the MIC of drug A or B in combination/MIC of drug A or B alone, and the FIC index was obtained by adding the two FICs. FIC indices were interpreted as synergistic if the values were ≦0.5, additive or indifferent if the values were >0.5 to 4, and antagonistic if the values were >4.0.

[1] = recent clinical isolates of E. faecalis, ALL (28)

## CC1(C)S[C@@H]2[C@H](NC(=O)[C@H](N)c3ccccc3)C(=O)N2[C@H]1C(=O)O [Ampicillin, reference compound]
E. faecalis; Enterococcus faecalis, ATCC 51299 / VRE, E. faecalis ATCC 51299 (VRE), read-out: MIC
  MIC: 0.5 µg/mL
E. faecalis; Enterococcus faecalis, E. faecalis 1, read-out: MIC
  MIC: 0.5 µg/mL
E. faecalis; Enterococcus faecalis, E. faecalis 7, read-out: MIC
  MIC: 0.5 µg/mL
E. faecium; Enterococcus faecium, ATCC33667, read-out: MIC
  MIC: 1 µg/mL

## C=C(F)c1sc(CNCCCNc2cc(=O)c3ccccc3[nH]2)c(C)c1Br [MRSi Cmpd 5 mupirocinate, N-(4-bromo-5-(1-fluorovinyl)-3-methylthiophen-2-ylmethyl)-N′(1H-quinolin-4-one)propane-1,3-diamine Mupirocinate]
E. faecalis; E. faecalis, Van-R(11)
  MIC90: 0.03 µg/mL
E. faecalis; E. faecalis, Van-S (16)
  MIC90: 0.03 µg/mL
E. faecalis; [1]
  MIC90: 0.03 µg/mL
  Mode (MIC): 0.03 µg/mL

## O=c1cc(NCCCNC2CCNc3c(Br)cc(Br)cc32)[nH]c2ccccc12 (centres unmarked) [MRSi cmpd 1, 2-[3-(6,8-Dibromo-2,3,4,5-tetrahydroquinolin-4-ylamino)prop-1-ylamino]-1H-quinolin-4-one]
S. aureus; S. aureus 10-420 (LL Mup. Rest.)
  MIC: 0.12 µg/mL
S. aureus; S. aureus 14-354 (LL Mup. Rest.)
  MIC: 0.25 µg/mL
S. aureus; S. aureus 25-670 (HL Mup. Rest.)
  MIC: 0.12 µg/mL
S. aureus; S. aureus 31-1334 (LL Mup Rest.)
  MIC: 0.12 µg/mL
S. aureus; S. aureus 36-1298 (LL Mup. Rest.)
  MIC: 0.015 µg/mL
S. aureus; S. aureus 87-2797 (HL Mup. Rest.)
  MIC: 0.12 µg/mL
S. aureus; S. aureus 87-2797 (Mup. Susc.)
  MIC: 0.12 µg/mL
S. aureus; S. aureus 101-100 (Mup. Susc.)
  MIC: 0.06 µg/mL
S. aureus; S. aureus ATCC 43300 (ORSA)
  MIC: 0.25 µg/mL
S. aureus; S. aureus LZ1 (HL Mup rest.)
  MIC: 0.06 µg/mL
S. aureus; S. aureus LZ6 (HL Mup rest.)
  MIC: 0.12 µg/mL
S. aureus; S. aureus LZ8 (LL Mup. Rest.)
  MIC: 0.06 µg/mL
S. aureus; S. aureus LZ9
  MIC: 0.06 µg/mL
S. aureus; S. aureus LZ10
  MIC: 0.12 µg/mL
S. aureus; S. aureus Miles Hall
  MIC: 0.12 µg/mL
S. aureus; S. aureus NRS1 (VISA)
  MIC: 0.12 µg/mL
S. aureus; S. aureus NRS107 (HL Mup rest.)
  MIC: 0.03 µg/mL
S. aureus; S. aureus Oxford
  MIC: 0.12 µg/mL
S. aureus; all S. aureus strains of Table 1
  MIC90: 0.25 µg/mL
S. aureus; all S. aureus strains of Table 1 (mupirocin-susceptible and -resistant)
  MIC Range: 0.015 to 0.12 µg/mL
E. faecalis; E. faecalis 1
  MIC: ≦0.004 μg/mL
E. faecalis; E. faecalis 7
  MIC: 0.015 µg/mL
E. faecalis; E. faecalis ATCC 51299 (VRE)
  MIC: 0.015 µg/mL
E. faecium
  MIC: ≦0.004 μg/mL
